The record followed here is patent EP4595983A1, “NANOPARTICLES FUNCTIONALISED WITH A STABILISING AGENT AND A TARGETING AGENT” (BXTA Nanotherapy Limited, priority 2024, dated 2025).

Peptide text beside a SMILES is read from it. * marks the point of attachment. Palmitoyl = CCCCCCCCCCCCCCCC(=O)*

For series [1], the system named is PC3 cells. Briefly: Alamar blue viability assay. Conditions: 6 h; for cell viability (significance): 150 nM, 300 nM and 600 nM; for reduction in viability: 300 nM. The class given is cell-based. As for the experimental part:
(§1) Alamar blue viability assays assessed the impact of inhibiting CXCL8 pro-inflammatory signalling on the viability of various PCa cell lines (Figure 28). Three increasing concentrations of pepducin (150 nM, 300 nM and 600 nM) were assayed following a 6 h incubation. Following exposure to pepducin cells were washed in PBS and 10% Alamar blue solution added for 4 h. Fluorescence was then measured at 540 - 570 nm. […] (N = 4 +/- SEM).

Series [2] has as its system various PCa cell lines. Briefly: Alamar blue viability assay. The format is cell-based. As to conditions: 150 nM, 300 nM and 600 nM, 6 h incubation. As for the experimental part:
as §1
Background: Resazurin is reduced to fluorescent resorufin, in cell work by metabolically active cells.

The subject of series [3] is sh1102 cells. In words: Alamar blue viability assay. As to conditions: pepducin exposure; comparative pepducin effect at both 300 nM and 600 nM. The class given is cell-based. As for the experimental part:
as §1
(§2) Following exposure to pepducins, cells were washed in PBS and 10% Alamar blue solution added for 4 h. Fluorescence was then measured at 540 - 570 nm. […] (N=4 +/- SEM).

The test system of series [4] is DU145 parental cells. Briefly: Alamar blue viability assay. The format is cell-based. Conditions: pepducin exposure; comparative pepducin effect at both 300 nM and 600 nM. How it is done:
as §1, §2

The subject of series [5] is NT01. Briefly: Alamar blue viability assay. The class given is cell-based. As to conditions: pepducin exposure; comparative pepducin effect at both 300 nM and 600 nM. How it is done: as §1, §2
Series [6] is described as follows: Solubility (peptide characteristics). The format is physicochemical.

With `CCCCCCCCCCCCCCCC(=O)N[C@@H](CCCNC(=N)N)C(=O)N[C@H](C(=O)N[C@@H](CC(C)C)C(=O)N[C@@H](Cc1ccccc1)C(=O)N[C@@H](CCCCN)C(=O)N[C@@H](C)C(=O)N[C@@H](Cc1c[nH]cn1)C(=O)N[C@@H](CCSC)C(=O)NCC(=O)N[C@@H](CCC(N)=O)C(=O)N[C@@H](CCCCN)C(=O)N[C@@H](Cc1c[nH]cn1)C(=O)N[C@@H](CCCNC(=N)N)C(=O)N[C@@H](CS)C(N)=O)[C@@H](C)O` [SEQ ID 3, Pal-RTLFKAHMGQKHRC-NH2] (Palmitoyl-RTLFKAHMGQKHRC-NH2), in series [1], the “cell viability (significance)” value is “no significant reduction in viability”. The reduction in viability in series [1] came to 8%. Further, the cell viability result in series [2] is on record as “did not significantly reduce cell viability”. Also, the “cell viability / toxicity” value in series [3], in series [4] and in series [5] was “did not show any significant toxicity” throughout. The Solubility in series [6] is 1:4 (Acetonitirile:H2O).
For the compound `CCCCCCCCCCCCCCCC(=O)N[C@@H](CCCNC(=N)N)C(=O)N[C@H](C(=O)N[C@@H](CC(C)C)C(=O)N[C@@H](Cc1ccccc1)C(=O)N[C@@H](CCCCN)C(=O)N[C@@H](C)C(=O)N[C@@H](Cc1c[nH]cn1)C(=O)N[C@@H](CCSC)C(=O)NCC(=O)N[C@@H](CCC(N)=O)C(=O)N[C@@H](CCCCN)C(=O)N[C@@H](Cc1c[nH]cn1)C(=O)N[C@@H](CCCNC(=N)N)C(N)=O)[C@@H](C)O` [comparative pepducin] (Palmitoyl-RTLFKAHMGQKHR-NH2), in series [1], the reduction in viability was found to be 25%. Further, the cell viability result in series [2] was “did not significantly reduce cell viability”. The “cell viability / toxicity” value in series [3], in series [4] and in series [5] was “significantly reduced cell viability” in each case.
As to “scrambled control: scrambled control (corresponding to SEQ ID 7) (Palmitoyl-TRFLAKMHQGHKRC-NH2; SMILES CCCCCCCCCCCCCCCC(=O)N[C@H](C(=O)N[C@@H](CCCNC(=N)N)C(=O)N[C@@H](Cc1ccccc1)C(=O)N[C@@H](CC(C)C)C(=O)N[C@@H](C)C(=O)N[C@@H](CCCCN)C(=O)N[C@@H](CCSC)C(=O)N[C@@H](Cc1c[nH]cn1)C(=O)N[C@@H](CCC(N)=O)C(=O)NCC(=O)N[C@@H](Cc1c[nH]cn1)C(=O)N[C@@H](CCCCN)C(=O)N[C@@H](CCCNC(=N)N)C(=O)N[C@@H](CS)C(N)=O)[C@@H](C)O)”, the “cell viability (significance)” value in series [1] is “no significant affects”. For the same compound, the cell viability result in series [2] is “did not significantly reduce cell viability”. Further, the “cell viability / toxicity” value in series [3], in series [4] and in series [5] was “did not show any significant toxicity” in each case.
